What was measured:
5-HT1A receptor = molecular target: T1, 5-HT1A receptor (Homo sapiens, UniProt P08908); details: background statement, see WO 98/43956 and EP 0 976 732 A1; cited from earlier work
T1 sequence (P08908 1-422): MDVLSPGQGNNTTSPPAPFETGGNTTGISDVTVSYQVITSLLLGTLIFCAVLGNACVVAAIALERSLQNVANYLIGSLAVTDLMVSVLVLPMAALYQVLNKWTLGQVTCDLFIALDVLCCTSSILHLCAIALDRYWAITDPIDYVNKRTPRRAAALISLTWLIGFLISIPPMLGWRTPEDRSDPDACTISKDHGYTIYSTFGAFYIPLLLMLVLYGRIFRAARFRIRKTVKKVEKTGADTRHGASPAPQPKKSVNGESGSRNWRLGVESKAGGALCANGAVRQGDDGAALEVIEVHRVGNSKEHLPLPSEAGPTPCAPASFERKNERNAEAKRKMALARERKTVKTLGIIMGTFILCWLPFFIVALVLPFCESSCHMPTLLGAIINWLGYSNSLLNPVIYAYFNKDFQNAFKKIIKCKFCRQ

CYP2C19 = CYP2C19 (Homo sapiens, UniProt P33261); experiment: Compound 1 metabolism / metabolite formation by recombinant CYP2C19; format: in vitro ADME; design: purchased Gentest Corp. (Woburn, Mass.); host or cells: insect cells (microsomal preparation)
Description: (§1) The metabolism of Compound 1 was determined by the disappearance of Compound 1 or the appearance of Compound 1 metabolites in reaction mixtures as compared to respective controls. Compound 1 was incubated in the reconstituted in vitro reaction systems containing pooled human liver S9 fractions, microsomal preparations, or recombinant hepatic CYP forms, including CYP1A2, CYP2C9, CYP2C19, CYP2D6, CYP2E1, and CYP3A4. The reaction mixture (total volume of 250 μL) contained 0.5 mg of liver microsomal protein, 50 or 25 pmol of recombinant CYP, and Compound 1 (50-80 μM) in 50 mM Tris buffer containing 15 mM MgCl2 (pH 7.4). After incubating at 37° C. with gentle shaking for 1 minute, the reaction was initiated by adding 25 μL of NADPH solution (20 mg/mL), and was carried out for 1 hour. The reaction was terminated by quickly cooling the test tube on ice, followed by the addition of an equal volume of 100% methanol. The samples were centrifuged in a desktop centrifuge at 14,000 rpm for 5 minutes, and the supernatants were filtered through syringe filters (13 mm, 0.45 μm). The filtrates were subjected to analysis using LC/MS (ion trap) or LC/MS/MS.
(§2) 1. LC/MS (LCQ ion trap mass spectrometer, Finnigan Corp., San Jose, Calif.): Hewlett Packard 1100 HPLC system (Waldbronn, Germany) consisted of a binary pump, an autosampler, a column compartment unit, and an online variable wavelength UV detector (VWD). The detector was monitored at 270 nm, which is the UVmax of Compound 1 predetermined by scanning between 225-400 nm using a photodiode array detector (PDA). The metabolites were separated on a Hewlett Packard Eclipse C18 column (150×2.1 mm). The mobile phases were 10 nmM ammonium acetate at pH 4.8 (A) and acetonitrile (B). The gradient (B) was 10% (0-6 minutes), 22% (12-22 minutes), 90% (25-30 minutes), and 10% (31 minutes and after). The flow rate was 0.25 mL/minute. Software Navigator (Version 1.2, Finnigan Corp.) was used to control the HPLC and MS and to acquire the data. The MS was operated at positive electrospray ionization (ESI) with 5.2 kV ionization potential and 220° C. heated capillary temperature. The product ion spectra were generated under 24V collision energy, which was optimized for the fragmentation of Compound 1.
2. LC/MS/MS (SCIEX API2000 triple quadrupole mass spectrometer, PE Biosystem, Foster City, Calif.): The same HPLC system described above was coupled with a tandem mass spectrometer. The metabolites were separated on a Sulpelco Discovery C18 column (150×2.1 mm), and the mobile phase described previously was run at 1.0 mL/min with a 1:10 split. The gradient (B) was 20% (0-6 minutes), 60% (14-18 minutes), 95% (20-24 minutes), and 20% (25 minutes and after). The operation of the HPLC and the MS/MS was controlled by MacChrom (Version 1.6, PE Biosystem). […]

CYP3A4 = CYP3A4 (Homo sapiens, UniProt P08684); experiment: Compound 1 metabolism / metabolite formation by recombinant CYP3A4; format: in vitro ADME; design: purchased Gentest Corp. (Woburn, Mass.); host or cells: insect cells (microsomal preparation)
Description: as §1
as §2, with “The MS was operated at positive electrospray ionization (ESI) with 5.2 kV ionization potential and 220° C. heated capillary temperature. The product ion spectra were generated under 24V collision energy, which was optimized for the fragmentation of Compound 1.” left out

[1] = approximately 50 μM of Compound 1

Chain of CYP3A4 (P08684 whole entry): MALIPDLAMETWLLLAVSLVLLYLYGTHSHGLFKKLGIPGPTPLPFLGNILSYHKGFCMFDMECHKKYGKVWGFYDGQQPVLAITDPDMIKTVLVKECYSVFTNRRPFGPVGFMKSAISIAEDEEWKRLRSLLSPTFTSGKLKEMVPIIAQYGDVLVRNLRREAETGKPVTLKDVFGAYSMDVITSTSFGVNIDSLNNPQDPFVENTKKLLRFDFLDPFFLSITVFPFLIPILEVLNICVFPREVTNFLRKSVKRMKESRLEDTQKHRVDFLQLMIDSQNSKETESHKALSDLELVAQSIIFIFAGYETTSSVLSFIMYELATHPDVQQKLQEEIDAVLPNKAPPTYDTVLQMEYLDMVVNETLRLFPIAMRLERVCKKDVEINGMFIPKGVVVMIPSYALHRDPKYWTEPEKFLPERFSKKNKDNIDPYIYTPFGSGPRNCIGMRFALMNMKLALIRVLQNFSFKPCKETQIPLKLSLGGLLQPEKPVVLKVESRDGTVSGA
Chain of CYP2C19 (P33261 whole entry): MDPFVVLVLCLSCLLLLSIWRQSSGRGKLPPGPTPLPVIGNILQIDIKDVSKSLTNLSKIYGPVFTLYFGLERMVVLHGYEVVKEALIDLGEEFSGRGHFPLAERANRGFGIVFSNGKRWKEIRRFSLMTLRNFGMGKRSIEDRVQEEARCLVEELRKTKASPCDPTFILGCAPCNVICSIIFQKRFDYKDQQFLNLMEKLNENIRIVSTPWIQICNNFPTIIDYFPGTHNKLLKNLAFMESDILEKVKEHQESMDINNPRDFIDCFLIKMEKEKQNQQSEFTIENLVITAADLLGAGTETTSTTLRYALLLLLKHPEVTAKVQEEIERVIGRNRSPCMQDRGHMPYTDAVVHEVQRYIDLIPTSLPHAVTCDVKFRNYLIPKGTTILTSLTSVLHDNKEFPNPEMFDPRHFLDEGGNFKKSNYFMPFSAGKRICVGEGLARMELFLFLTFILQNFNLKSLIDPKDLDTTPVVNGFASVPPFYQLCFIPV

In the case of `CNC(=O)Cc1ccc2ccn(C3CCN(CCc4ccccc4F)CC3)c2c1` [Compound 1, N-methyl-[1-[1-(2-fluorophenethyl)piperidine-4-yl]-1H-indol-6-yl] acetamide], the “IC50, binding to 5-HT1A receptor” value (5-HT1A receptor) is given as “low nanomolar”, the “metabolism of Compound 1 by CYP2C19 (in words)” value (CYP2C19; [1]) is given as “metabolized” and the “Rel. Amount (%)” value (CYP2C19; recombinant CYP2C19, estimated by UV absorbance at 270 nm, metabolite formed or Compound 1 left after 1 hour with NADPH) is given as 42%. For the same compound, the “metabolism of Compound 1 by CYP3A4 (in words)” value (CYP3A4; [1]) was “metabolized” and the “Rel. Amount (%)” value (CYP3A4; recombinant CYP3A4, estimated by UV absorbance at 270 nm, metabolite formed or Compound 1 left after 1 hour with NADPH) was 23%.
